According to patent US20240391937A1, “BICYCLIC DERIVATIVE PARP INHIBITOR AND USE THEREOF” (XIZANG HAISCO PHARMACEUTICAL CO., LTD., priority 2021, published 2024):
Like-named read-outs stand apart in the source and are kept apart here.

Tests used:
PARP-1 enzyme = target: T1, PARP-1 enzyme (Homo sapiens, UniProt P09874); test: PARP-1 enzyme activity test (BPS Bioscience chemiluminescence kit); format: biochemical
T1 construct: purchased BPS Bioscience
Procedure: PARP-1 chemical […] detection kit was purchased from BPS Bioscience. The histone solution in the kit was diluted 5× with 1×PBS, and 25 μL of the diluted histone solution was added to a microwell plate and incubated overnight at 4° C. After the incubation, the plate was washed three times with PBST (0.05% Tween-20). 100 μL of the blocking solution was added to the microwell plate and incubated at 25° C. for 90 minutes. After the incubation, the plate was washed three times with PBST. 2.5 μL of compounds at different concentrations diluted in test buffer and 12.5 μL of substrate mixed solution (1.25 μL 10× PARP test buffer; 1.25 μL 10× PARP test mixed solution; 2.5 μL Activated DNA, 7.5 μL double-distilled water) were added to the microwell plate. The PARP-1 enzyme was diluted to 2 ng/μL, 10 μL of the diluent was added to the microwell plate, and the reaction system was incubated at 25° C. for 60 minutes.
After the incubation, the plate was washed three times with PBST. Streptavidin-HRP was diluted 50× with a blocking solution, and 25 μL of the diluent was added to the microwell plate and incubated at 25° C. for 30 minutes. After the incubation, the plate was washed three times with PBST. ELISA ECL substrate A and substrate B were mixed at a ratio of 1:1 (v/v), 50 μL of the mixture was added to the microwell plate, and the chemiluminescence value was read.
The inhibition rate was calculated according to formula 1, where RLUsample was the readout of the compound well, RLUmax was the readout of the solvent control well, and RLUmin was the readout of the control well without the PARP-1 enzyme. Curve fitting was performed by four parameters (log (inhibitor) vs. response—Variable slope) using GraphPad Prism software, and the IC50 value was calculated.

MDA-MB-436 cells = test: MDA-MB-436 cell activity test (CellTiter-Glo, 7 days); format: cell-based; settings: Homo sapiens; for IC50: MDA-MB-436, 168 h, 7 days incubation; for inhibition at 10 µM: MDA-MB-436 cells, read-out: Max inh. % 10 μM
Procedure: Breast tumor cells MDA-MB-436 were purchased from ATCC, the culture medium was Leibovitz's L-15+10% FBS, and the cells were cultured in a CO2-free incubator at 37° C. On day 1, the cells in the exponential growth phase were collected, and the cell suspension was adjusted to 4000 cells/135 μL with the culture medium. 135 μL of the cell suspension was added to each well of a 96-well cell culture plate and incubated overnight. On day 2, compounds at different concentrations were added, and the plate was placed in the incubator and incubated for 7 days. After the incubation was completed, according to operation instructions for a CellTiter-Glo kit (Promega, G7573), 75 μL of CTG solution, which was already pre-melted and equilibrated to room temperature, was added to each well, and the mixture was uniformly mixed for 2 min using a microplate shaker. The plate was placed at room temperature for 10 min, and then […] were measured using an Envision2104 plate reader (PerkinElmer). The inhibition rate was calculated using formula (1), where RLUcompound was the readout of the drug treated group, RLUcontrol was the average value of the vehicle control group, and RLUblank was the average value of the cell-free well. The IC50 value was calculated using GraphPad Prism software.

[1] = Pharmacokinetic test in mice; format: in vivo, ICR mice
Procedure: • 3.1 Experimental animals: male ICR mice, 20-25 g, 18 mice/compound. purchased from Chengdu Ddossy Experimental Animals Co., Ltd. • 3.2 Experimental design: on the day of the test, 18 ICR mice were randomly grouped according to their body weights. the animals were fasted with water available for 12 to 14 h one day before the administration, and were fed 4 h after the administration. [table] Before and after the administration, 0.06 mL of blood was taken from the orbit of the animals under isoflurane anesthesia and placed in an EDTAK2 centrifuge tube. The blood was centrifuged at 5000 rpm and 4° C. for 10 min to collect plasma. The blood collection time points for the intravenous group and intragastric administration group were: 0 min, 5 min, 15 min, 30 min, 1 h, 2 h, 4 h, 6 h, 8 h, and 24 h. Before analysis and detection, all samples were stored at −80° C., and a quantitative analysis of samples was performed using LC-MS/MS.

[2] = Pharmacokinetic test in rats; format: in vivo, SD rats
Procedure: • 1.1 Experimental animals: male SD rats, about 220 g, 6-8 weeks old, 6 rats/compound, purchased from Chengdu Ddossy Experimental Animals Co., Ltd. • 1.2 Experimental design: on the day of the test, 6 SD rats were randomly grouped according to their body weight; the animals were fasted with water available for 12 to 14 h one day before the administration, and were fed 4 h after the administration.
Before and after the administration, 0.15 ml of blood was taken from the orbit of the animals under isoflurane anesthesia and placed in an EDTAK2 centrifuge tube. The blood was centrifuged at 5000 rpm and 4° C. for 10 min to collect plasma. The blood collection time points for the intravenous administration group and intragastric administration group were: 0, 5 min, 15 min, 30 min, 1 h, 2 h, 4 h, 6 h, 8 h, and 24 h. Before analysis and detection, all samples were stored at −80° C., and a quantitative analysis of samples was performed using LC-MS/MS.

[3] = grades, read-out: PARP-1 enzyme activity IC50
[4] = values in text, read-out: IC50 values on PARP-1
[5] = male, ICR, mouse, iv, mice, i.v. 2.5 mg/kg, plasma
[6] = male, SD, rat, iv, rats, i.v. 2.5 mg/kg, plasma

T1 sequence (P09874 whole entry): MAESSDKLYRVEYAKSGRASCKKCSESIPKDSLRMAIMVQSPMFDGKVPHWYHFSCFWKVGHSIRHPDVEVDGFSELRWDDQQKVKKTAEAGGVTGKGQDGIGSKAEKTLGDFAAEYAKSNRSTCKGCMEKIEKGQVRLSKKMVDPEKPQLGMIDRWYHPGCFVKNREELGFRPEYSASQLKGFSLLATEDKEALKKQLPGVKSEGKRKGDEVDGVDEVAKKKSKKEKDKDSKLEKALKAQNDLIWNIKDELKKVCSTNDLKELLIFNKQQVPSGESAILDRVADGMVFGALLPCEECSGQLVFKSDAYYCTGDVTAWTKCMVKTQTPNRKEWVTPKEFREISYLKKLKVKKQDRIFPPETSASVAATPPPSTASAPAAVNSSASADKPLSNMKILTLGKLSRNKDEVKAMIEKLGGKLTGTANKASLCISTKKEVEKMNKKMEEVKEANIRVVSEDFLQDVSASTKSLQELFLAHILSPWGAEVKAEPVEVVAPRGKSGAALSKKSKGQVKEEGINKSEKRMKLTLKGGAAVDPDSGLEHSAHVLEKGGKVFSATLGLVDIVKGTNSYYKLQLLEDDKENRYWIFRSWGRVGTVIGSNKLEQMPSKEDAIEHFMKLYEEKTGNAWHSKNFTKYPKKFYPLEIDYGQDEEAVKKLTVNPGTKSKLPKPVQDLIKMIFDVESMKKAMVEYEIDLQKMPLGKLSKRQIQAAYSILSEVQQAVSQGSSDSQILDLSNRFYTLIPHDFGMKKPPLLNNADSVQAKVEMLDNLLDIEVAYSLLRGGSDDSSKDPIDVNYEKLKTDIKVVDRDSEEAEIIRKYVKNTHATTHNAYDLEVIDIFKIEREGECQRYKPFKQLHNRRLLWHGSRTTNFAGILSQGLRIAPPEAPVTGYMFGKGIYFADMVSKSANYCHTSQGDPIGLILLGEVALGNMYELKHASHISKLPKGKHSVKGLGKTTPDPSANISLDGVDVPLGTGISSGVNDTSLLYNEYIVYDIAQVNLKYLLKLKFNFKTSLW

SMILES | IC50 (PARP-1 enzyme; [3]) [nM] | IC50 (PARP-1 enzyme; [4]) [nM] | IC50 (MDA-MB-436 cells) [nM] | pharmacokinetic characteristics in rats ([2]; conclusion in words) | AUC(0-t) [2, 6] [µg·h/mL] | clearance [2, 6] [mL/min/kg] | Vd ([2]; male, SD, rat, iv, rats, i.v. 2.5 mg/kg, plasma, read-out: Vdss) [L/kg] | AUC(0-t) ([2]; male, SD, rat, po, rats, i.g. 10 mg/kg, plasma) [µg·h/mL] | F ([2]; rats, i.g. 10 mg/kg) [%] | inhibition at 10 µM (MDA-MB-436 cells) [%] | pharmacokinetic characteristics in mice ([1]; conclusion in words) | AUC(0-t) [1, 5] [µg·h/mL] | clearance [1, 5] [mL/min/kg] | Vd ([1]; male, ICR, mouse, iv, mice, i.v. 2.5 mg/kg, plasma, read-out: Vdss) [L/kg] | AUC(0-t) ([1]; male, ICR, mouse, po, mice, i.g. 10 mg/kg, plasma) [µg·h/mL] | F ([1]; mice, i.g. 10 mg/kg) [%]
O=C(NC1CC1)c1ccc(C2=CCN(Cc3cnc4cc(C5CC5)c(=O)[nH]c4c3)CC2)cn1 [Compound 3, N-cyclopropyl-1′-((7-cyclopropyl-6-oxo-5,6-dihydro-1,5-naphthyridin-3-yl)methyl)-1′,2′,3′,6′-tetrahydro-[3,4′-bipyridine]-6-carboxamide] | ≤ 1 | 0.6 | 4.5 | – | – | – | – | – | – | 82.1 | good pharmacokinetic characteristics | 108 | 0.346 | 0.207 | 707 | 164
Cn1cc(NC(=O)c2ccc(N3CCN(Cc4cnc5cc(C6CC6)c(=O)[nH]c5c4)CC3)cn2)cn1 [Compound 6, 5-(4-((7-cyclopropyl-6-oxo-5,6-dihydro-1,5-naphthyridin-3-yl)methyl)piperazin-1-yl)-N-(1-methyl-1H-pyrazol-4-yl)picolinamide] | ≤ 1 | 0.54 | 2.8 | – | – | – | – | – | – | 85.4 | – | – | – | – | – | –
O=C(NC1CC1)c1ccc(N2CCN(Cc3cnc4cc(C5CC5)c(=O)[nH]c4c3)CC2)cn1 [Compound 5, N-cyclopropyl-5-(4-((7-cyclopropyl-6-oxo-5,6-dihydro-1,5-naphthyridin-3-yl)methyl)piperazin-1-yl)picolinamide] | ≤ 1 | 0.74 | 5.6 | – | – | – | – | – | – | 80.7 | – | – | – | – | – | –

Continued by falling IC50 (PARP-1 enzyme; [4]), values first:

IC50 (PARP-1 enzyme; [3]) [nM] | IC50 (PARP-1 enzyme; [4]) [nM] | IC50 (MDA-MB-436 cells) [nM] | pharmacokinetic characteristics in rats ([2]; conclusion in words) | AUC(0-t) [2, 6] [µg·h/mL] | clearance [2, 6] [mL/min/kg] | Vd ([2]; male, SD, rat, iv, rats, i.v. 2.5 mg/kg, plasma, read-out: Vdss) [L/kg] | AUC(0-t) ([2]; male, SD, rat, po, rats, i.g. 10 mg/kg, plasma) [µg·h/mL] | F ([2]; rats, i.g. 10 mg/kg) [%] | SMILES | inhibition at 10 µM (MDA-MB-436 cells) [%] | pharmacokinetic characteristics in mice ([1]; conclusion in words) | AUC(0-t) [1, 5] [µg·h/mL] | clearance [1, 5] [mL/min/kg] | Vd ([1]; male, ICR, mouse, iv, mice, i.v. 2.5 mg/kg, plasma, read-out: Vdss) [L/kg] | AUC(0-t) ([1]; male, ICR, mouse, po, mice, i.g. 10 mg/kg, plasma) [µg·h/mL] | F ([1]; mice, i.g. 10 mg/kg) [%]
– | 1.2 | 1.1 | – | – | – | – | – | – | O=c1[nH]c2cc(CN3CCN(c4cn5cc(C(F)(F)F)nc5cn4)CC3)cnc2cc1C1CC1 [Compound 8, 3-cyclopropyl-7-((4-(2-(trifluoromethyl)imidazo[1,2-a]pyrazin-6-yl)piperazin-1-yl)methyl)-1,5-naphthyridin-2(1H)-one] | 97.4 | – | – | – | – | – | –
≤ 1 | 0.9 | 5.1 | good pharmacokinetic characteristics | 70.8 | 0.585 | 0.169 | 206 | 72.6 | CNC(=O)c1ccc(N2CCN(Cc3cnc4cc(C5CC5)c(=O)[nH]c4c3)CC2)cn1 [Compound 2, 5-(4-((7-cyclopropyl-6-oxo-5,6-dihydro-1,5-naphthyridin-3-yl)methyl)piperazin-1-yl)-N-methylpicolinamide] | 86.3 | – | – | – | – | – | –
